Source: publication PMC6127930 (2018)
Each block holds one compound with its values, some of them ahead of it.

System: oxytetracycline binding aptamer (OBA) (DNA, aptamer) CGTACGGAATTCGCTAGCACGTTGACGCTGGTGCCCGGTTGTGGTGCGAGTGTTGTGTGGATCCGAGCTCCACGTG
Experiment: magnetic capture, UV-Vis of unbound at 368 nm
Conditions: 100 mM NaCl, 5 mM KCl, 2 mM MgCl2, 1 mM CaCl2, 20 mM Tris-HCl pH 7.6, room temperature, 2 h

- binding (tested at 5 µM, 9.0 ± 1.3% non-specifically adsorbed): no
Structure (SMILES): COc1ccc2cc([C@H](C)C(=O)O)ccc2c1

- binding (5 µM compound, 85 ± 2.8% captured): yes
Structure (SMILES): CN(C)[C@@H]1C(=O)C(C(N)=O)=C(O)[C@@]2(O)C(=O)C3=C(O)c4c(O)cccc4[C@@](C)(O)[C@H]3[C@H](O)[C@@H]12

- binding (tested at 5 µM, 8.7 ± 3.7% non-specifically adsorbed): no
Structure (SMILES): O=C(O)Cc1ccccc1Nc1c(Cl)cccc1Cl
